Several values for one entry are separate records, joined by “and”; a condition that tells them apart may be missing. Identical values can stand only once.
Legend:
[1] = target: T1, patient GHSR1a (Homo sapiens, UniProt Q92847); conditions: pre-incubation 8 hours
Excerpt: (§1) The SPA format was utilized for high throughput screening of test compounds and filter binding served for more comprehensive binding characterization. In both formats test compound affinity is expressed as Ki value, defined as the concentration of compound required to decrease [^125I] ghrelin binding by 50% for a specific membrane batch at a given concentration of radioligand.

[2] = target: T1, patient GHSR1a; assay: biochemical; conditions: for Ki: Human GHS-1aR Filter Ki
Description: as §1
Patient Ghrelin Filter Binding Assay
(§2) Ghrelin binding assays were performed in a final volume of 100 μl containing […] patient GHSR1a (HEK293 Tetracycline-Inducible cell line expressing the patient growth secretagogue receptor 1a; prepared as membranes) and 50 pM [^125I] ghrelin (Perkin Elmer Life Sciences, NEX-388), plus varying concentrations of test compound or vehicle.
(§3) Briefly, assays were prepared at room temperature in 96-well plates (Costar, 3357) containing 2 μl of test compound in DMSO (or DMSO as vehicle). Assays were initiated by addition of 23 μl assay buffer (50 mM HEPES, 10 mM MgCl2, 0.2% BSA, EDTA-free protease inhibitor tablets—1 tablet/50 ml buffer, pH 7.4), 25 μl 4 mg/ml hGHSR1a membrane and 50 μl of 100 pM [^125I] ghrelin, both in assay buffer.
(§4) The mixture was incubated for 90 minutes at room temperature followed by transfer to a 0.3% PEI-treated, 96-well glass fiber filtration plate (Perkin Elmer, 6005174). The mixture was suctioned dry with vacuum and immediately washed 3 times with 200 μl ice cold 50 mM Tris pH 7.5. Plates were allowed to dry overnight at room temperature and 30 μl Supermix scintillant (Perkin Elmer, 1200-439) is added to each well. The amount of receptor-ligand complex was determined by liquid scintillation counting using a 1450 Microbeta Trilux (Wallac).

[3] = target: mouse GHSR1a (Mus musculus, UniProt Q99P50); assay: biochemical; conditions: Mouse GHS-1aR Filter Ki, pre-incubation 90 minutes
mouse GHSR1a, sequence (Q99P50 whole entry): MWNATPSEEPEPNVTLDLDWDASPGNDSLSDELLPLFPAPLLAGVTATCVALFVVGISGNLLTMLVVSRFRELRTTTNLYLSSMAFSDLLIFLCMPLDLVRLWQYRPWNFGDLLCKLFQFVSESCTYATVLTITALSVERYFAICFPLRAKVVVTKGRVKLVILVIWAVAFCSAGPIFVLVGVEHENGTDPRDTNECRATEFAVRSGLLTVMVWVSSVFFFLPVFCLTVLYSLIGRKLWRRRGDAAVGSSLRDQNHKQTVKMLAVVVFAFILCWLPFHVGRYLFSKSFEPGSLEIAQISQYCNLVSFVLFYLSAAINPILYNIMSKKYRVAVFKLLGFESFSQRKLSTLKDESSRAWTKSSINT
Description: as §2, §3
as §4, with “(Wallac). […]” for “(Wallac).”

[4] = target: rat GHSR1a (Rattus norvegicus, UniProt O08725); assay: biochemical; conditions: Rat GHS-1aR Filter Ki, pre-incubation 90 minutes
rat GHSR1a, sequence (O08725 whole entry): as the sequence (Q99P50 whole entry) above, with S30P, S249A counted along it
Description: as §2, §3
as §4, with “(Wallac). […]” for “(Wallac).”

[5] = target: T2, dog GHSR1a (Canis lupus familiaris, UniProt A5HKU8); assay: Radioligand binding filtration format assay, dog GHSR1a; conditions: pre-incubation 90 minutes; read-out: Dog GHS-1aR Filter Ki (converted)
T2 construct: dog (NM_001099945.1)
T2 sequence (A5HKU8 1-349): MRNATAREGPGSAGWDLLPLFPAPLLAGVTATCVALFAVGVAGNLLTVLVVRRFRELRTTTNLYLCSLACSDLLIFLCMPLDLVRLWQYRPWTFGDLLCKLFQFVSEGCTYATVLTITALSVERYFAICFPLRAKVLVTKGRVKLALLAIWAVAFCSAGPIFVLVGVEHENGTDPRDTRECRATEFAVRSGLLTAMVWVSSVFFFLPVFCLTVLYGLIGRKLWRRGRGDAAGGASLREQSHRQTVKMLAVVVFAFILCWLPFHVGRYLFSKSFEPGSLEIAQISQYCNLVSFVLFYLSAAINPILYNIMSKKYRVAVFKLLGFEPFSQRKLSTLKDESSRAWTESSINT
Description: as §2
(§5) Assays were initiated by addition of 23 μl assay buffer (50 mM HEPES, 10 mM MgCl2, 0.2% BSA, EDTA-free protease inhibitor tablets—1 tablet/50 ml buffer, pH 7.4), 25 μl 4 mg/ml hGHSR1a membrane and 50 μl of 100 pM [^125I] ghrelin, both in assay buffer.
(§6) Radioligand binding filtration format assays for dog (NM_001099945.1), monkey (XM_001084886.1), mouse (NM_177330), and rat (NM_032075) GHSR1a (all expressed in unique HEK293 Tetracycline-Inducible cell lines) were performed in an identical manner as described for patient GHSR1a except that the final amount of membrane to be used is as follows: 2 μg dog GHSR, 250 ng monkey GHSR, 200 ng mouse GHSR, or 125 ng rat GHSR.

[6] = target: T3, monkey GHSR1a (Macaca mulatta, UniProt F6Z4B1); assay: Radioligand binding filtration format assay, monkey GHSR1a; conditions: pre-incubation 90 minutes; read-out: Primate GHS-1aR Filter Ki (converted)
T3 construct: monkey (XM_001084886.1)
T3 sequence (F6Z4B1 1-366): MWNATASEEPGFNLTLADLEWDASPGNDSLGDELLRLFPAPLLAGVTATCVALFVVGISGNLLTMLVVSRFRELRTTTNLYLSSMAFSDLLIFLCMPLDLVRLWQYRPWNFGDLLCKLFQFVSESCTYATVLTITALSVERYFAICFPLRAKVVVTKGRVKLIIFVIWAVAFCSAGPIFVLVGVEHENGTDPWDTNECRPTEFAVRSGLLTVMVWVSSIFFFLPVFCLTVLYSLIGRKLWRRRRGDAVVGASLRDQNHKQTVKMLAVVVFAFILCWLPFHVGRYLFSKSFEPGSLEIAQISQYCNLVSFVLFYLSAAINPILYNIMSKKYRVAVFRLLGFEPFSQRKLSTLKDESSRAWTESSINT
Description: as §2, §5, §6

[7] = target: T1, patient GHSR1a
Excerpt: The assay monitors the ligand-dependent exchange of GDP for GTP. GPCR activation results in an increase in fluorescence as receptor-bound GDP is replaced by Europium-labeled GTP.

[8] = target: broad panel of receptors, transporters, ion channels, and enzymes; assay: Selectivity against a broad panel
[9] = test system: Male Wistar Han rats; assay: Locomotor activity after single oral dose; format: in vivo, rat
Description: (§7) Male Wistar Han rats were administered a single dose (1, 10, 50, or 150 mg/kg) of (R)-2-(2-methylimidazo[2,1-b]thiazol-6-yl)-1-(2-(5-(6-methylpyrimidin-4-yl)-2,3-dihydro-1H-inden-1-yl)-2,7-diazaspiro[3.5]nonan-7-yl)ethanone (Example 1) via oral gavage to assess the effects of Example 1 on locomotor activity over a 21 hour period (FIG. 1). Animals were habituated to the locomotor apparatus one hour prior to dosing. The lights were turned off at 4 pm and turned on at 4 am. Animals were dosed at 4 pm. Activity was monitored post-dose for 20 hours. Plasma, brains and CSF were taken from a satellite group of animals at Tmax (30 minutes post dosing).

[10] = Plasma and brain levels 30 minutes post dosing; format: in vivo, rat
Description: as §7

[11] = test system: humans; assay: Clinical studies B3301001, B3301002, B3301007; format: in vivo, human
Description: Patients were administered Example 1 as an extemporaneously prepared suspension in B3301001, B3301002, and the IR in B3301007 and as an extemporaneously prepared osmotic capsule (EPOC) in B3301007. […] Dose related increase in heart rate (up to ˜10 beats per minute) as well as attenuation of both ghrelin-induced growth hormone secretion and postprandial glucose were seen after acute dosing.

[12] = test system: male rhesus monkeys; assay: Primate study of sleep duration and food intake after evening dosing; format: in vivo, Macaca mulatta
Excerpt: In a primate study, the effect of Example 1 on sleep duration and food intake three hours post evening dosing Example 1 was studied dosing either once a day (QD) or twice a day (BID). Eight healthy adult (5.8 to 9.7 years of age) male rhesus monkeys, (Macaca mulatta, of Indian origin) were used. Animals were studied in parallel. According to a cross-over design, four of the animals received Example 1 (or Vehicle as a control) QD during the first phase of the study and BID during the second phase of the study. A reverse treatment schedule was used for the remaining four animals. When Example 1 was administered QD, the single dose was administered in the evening. Each treatment period lasted 28-30 consecutive days. Vehicle treatment lasted 10-14 days, immediately preceding the phase where Example 1 was administered. Animals were also kept in their sleep/circadian chambers to become familiar with them. Treatment was administered as a liquid solution, dispensed automatically using a timer-controlled pump. Throughout treatment periods, animals were maintained in light-controlled and sound attenuated sleep/circadian chambers, under constant conditions of dim light, in order to determine the intrinsic rhythms of sleep/activity and self-administered food intake. Sleep/activity cycle and sleep duration was documented using continuous on-line actigraphic image analysis technique, as described in Masuda et al., J Biol Rhythms. 2010 October; 25(5):361-71, Intrinsic activity rhythms in Macaca mulatta: their entrainment to light and melatonin. A software algorithm for actigraphic data analysis of sleep versus wakefulness in rhesus monkeys is explained in Zhdanova et al., J Biol Rhythms. 2011 April; 26(2):149-59. Aging of intrinsic circadian rhythms and sleep in a diurnal nonhuman primate, Macaca mulatta. Sleep onset and duration estimates were based on the comparisons between polysomnographic and actigraphic sleep in this species. Each circadian chamber was equipped with an individual touch-screen monitor, connected to an automatic pellet dispenser (ENV-203-1000, Med Associates Inc., St. Albans, Vt.). This allowed for ad libitum around the clock self-administration of 1 g food pellets (Nutritionally complete dustless precision pellets, Bio-Serv, Frenchtown, N.J.) via pressing a moving on-screen target. The time each pellet dispensed was documented. Data analysis was conducted using linear mixed model (SPSS), with the level of significance at p<0.05. Data were presented as group means (standard error of the means (SEM)) for each treatment condition: QD or BID administration of vehicle or Example 1.

[13] = 10 mg/kg oral gavage, 35-65 minutes post dosing
[14] = 50 mg/kg oral gavage, 35-65 minutes post dosing
[15] = QD and BID groups, N=8 per group, p<0.01
[16] = individual animal, evening QD, throughout the treatment period

T1 sequence (Q92847 whole entry): as the sequence (F6Z4B1 1-366) above, with A6P, E20D, R36Q, S59A, I163V counted along it

Human GHS-1aR SPA Ki [1]: 2.24 ng/mL
Ki ([2]; pre-incubation 90 minutes): 2.49 nM and 2.5 nM
Ki ([2]; pre-incubation 24 hours): 1.42 nM
Kd ([2]; Human GHS-1aR Filter Motulsky Kd, Equilibrium 4.07 hours): 3.04 nM
Kd ([2]; human Kd via Patient Ghrelin Filter Binding Assay): 3 nM
Ki [3]: 7.7 nM
Ki [4]: 3.19 nM and 3.2 nM
Ki [5]: 3.56 nM and 3.57 nM
Ki [6]: 1.83 nM
functionality of the test compound [7]: inverse agonist
IC50 [8]: > 1000 nM
hyperactivity ([9]; any dose (1-150 mg/kg)): did not induce hyperactivity
Brain (nM free) ([10]; 1 mg/kg oral): 1.6 nM free
Plasma (nM free) ([10]; 1 mg/kg oral): 18 nM free
Brain (nM free) ([10]; 10 mg/kg oral): 16 nM free
Plasma (nM free) ([10]; 10 mg/kg oral): 184 nM free
Brain (nM free) ([10]; 50 mg/kg oral): 80 nM free
Plasma (nM free) ([10]; 50 mg/kg oral): 856 nM free
Brain (nM free) ([10]; 150 mg/kg oral): 148 nM free
Plasma (nM free) ([10]; 150 mg/kg oral): 1704 nM free
SMILES: Cc1cc(-c2ccc3c(c2)CC[C@H]3N2CC3(CCN(C(=O)Cc4cn5cc(C)sc5n4)CC3)C2)ncn1 [Example 1, (R)-2-(2-methylimidazo[2,1-b]thiazol-6-yl)-1-(2-(5-(6-methylpyrimidin-4-yl)-2,3-dihydro-1H-inden-1-yl)-2,7-diazaspiro[3.5]nonan-7-yl)ethanone]
effect on locomotor activity compared to vehicle ([9]; 1 mg/kg oral gavage, 35-65 minutes post dosing): no biologically or statistically significant effect
decrease in rearing [9, 13]: 56%
decrease in total locomotor activity [9, 13]: 60%
decrease in rearing [9, 14]: 43%
decrease in total locomotor activity [9, 14]: 48%
total activity compared to vehicle control ([9]; 150 mg/kg oral gavage, 35-65 minutes post dosing): reduction in total activity which was statistically significant
total activity ([9]; 20 hours post dosing): no statistically or biologically significant reductions in total activity
dose related increase in heart rate ([11]; after acute dosing): ≤ 10 beats per minute
ghrelin-induced growth hormone secretion ([11]; after acute dosing): attenuation
postprandial glucose ([11]; after acute dosing): attenuation
safety and tolerability in humans ([11]; up to 100 mg BID for 14 days): safe and generally well tolerated
change in food intake within 3 hours of evening administration vs vehicle [12, 15]: significant decrease in food intake
change in sleep duration within 3 hours of evening treatment vs vehicle [12, 15]: significant increase in sleep duration
food intake soon after administration [12, 16]: significantly reduced food intake
sleep latency [12, 16]: significantly reduced sleep latency

Reference: patent US9370516B2 (Pfizer Inc., priority 2012, dated 2016)
